Where two headings read alike, the source gives them in different places. *1 amine or outer side, *2 acyl side, *3 side chain or, on linkers, in order; H or OH if unused. Where a SMILES comes first, the peptide text is derived from it. Bridges are numbered along the chain shown (N, C = ends). Roman numbers before positions name the chains, in order. [ ]: non-standard residue; d: D form. Actinocin(9to1) = Cc1c2oc3c(C)ccc(C(=O)[*:1])c3nc-2c(C(=O)[*:2])c(N)c1=O; NMeV = CN[C@H](C(=O)O)C(C)C; Sar = CNCC(=O)O
Key:
[1] = tested on: neoplastic cells collected from spleen and abdominal tumor biopsy specimens; experiment: MiCK assay, patient specific cancer cell testing (Example 10); format: cell-based, human
Protocol: The experiments were conducted on neoplastic cells collected from spleen and abdominal tumor biopsy specimens from a person. The tumor specimens were of an unknown primary. The experiment consisted of using a MiCK assay, according to the present disclosure, to test the effectiveness of 37 potential anti-cancer drugs, combinations of these drugs, and various concentrations of these drugs.
Apoptotic readings greater than 5.0KU in the MiCK assay are considered to be highly sensitive and are associated with a good clinical response. […] It should be noted that the alkylating agents cyclophosphamide and ifosfamide require hepatic metabolic transformation to their active metabolite, 4HC and 4HI respectively, and therefore cannot be tested directly in vitro. For the MiCK assay their active metabolites, 4HC and 4HI respectively were used.

[2] = tested on: Purified breast cancer cells from 67 patient (Pt) biopsies; experiment: MiCK assay of drug-induced apoptosis, breast cancer specimens; format: cell-based, human; settings: for KU Mean / KU Median: kinetic units of apoptosis; for KU Mean: mean over N patient samples (at least 9 per drug); for KU Median: median over N patient samples; for Mean Difference (95% CI) of KU vs Mitox: drug minus Mitox; for Mean Difference (95% CI) of KU vs Vincristine: drug minus Vincristine; for Mean Difference (95% CI) of KU vs Doxo: paired t-test, drug minus Doxo
Protocol: Apoptosis(KU)=(VmaxDrug Candidate Treated−VmaxControl)×60×X/(ODcontrol−ODblank)
Within 24 to 48 hours of collection, the specimen was minced, digested with 0.25% trypsin and 0.08% DNase for 1-2 hours at 37 C.°, and then filtered through a 100 micrometer cell strainer. When necessary, non-viable cells were removed by density gradient centrifugation. The cell suspension was then incubated for 30 min at 37° C. in a tissue culture flask to remove macrophages by adherence. For epithelial tumors lymphocytes were removed by 30 minute incubation with CD2 antibody conjugated magnetic beads for T lymphocytes and CD19 antibody conjugated magnetic beads for B lymphocytes. Remaining macrophages were removed, if necessary, using CD14 antibody conjugated magnetic beads. The final cell suspension was plated into a 96-well half-area plate, 120 microliter aliquot per well. The plate was incubated overnight at 37° C. with 5% carbon dioxide humidified atmosphere. 5×10^4 to 1.5×10^5 cells were seeded per well depending on the cell volume to give adequate well-bottom coverage.
Within 24 to 48 hours of collection, the specimen was treated as follows in order to purify and isolate cells from solid tumors: • Take the specimen out of the transport tube. • Put in a petri dish in 13 ml of PBS+high concentration of antibiotics (200 units/ml Penicillin+200 μg/ml streptomycin) and take measurements and picture of the specimen. […] In that case, one may make the determination to do a “pre-filtration” using sterile gauze over a 50 ml tube. Then proceed with the cell strainer filtration process referenced above. • Centrifuge the filtered cell suspension 1500 RPM 5 min • Discard the supernatant. To the pellet, add 5 ml of red blood cell lysis solution (standard NH4Cl containing lysis solution: Nh4Cl0.15M+KHCO3 10 mM+EDTA-4Na 0.1 mM, pH 7.2), incubate 2-3 min and add 5 ml of RPMI 10% FBS. • Centrifuge 5 min 1500 RPM. Resuspend the pellet in RPMI 10% FBS (1-10 ml depending on the pellet size). • Collect the second fraction in the enzyme and repeat the steps above. • Check the viability of all fractions and pool. Do a cytospin stain with Wright Giemsa to verify the cell content of the population. NOTE: this is done numerous times during the process of purification. • 3) When necessary, non-viable cells were removed by density gradient centrifugation. • Density gradient centrifugation (optiprep): first layer=2 ml cells+4.45 ml optiprep 40% in RPMI, second layer=optiprep 22.5% in RPMI, 3rd layer=0.5 ml of RPMI. Centrifuge at 2000 RPM for 20 min • Collect the viable cell layer, add 10 ml of RPMI 10% FBS, centrifuge at 1500 RPM for 5 min • Resuspend the pellet in RPMI 10% FBS (volume depends on the pellet size and on the next step required). • If mucin is present in the specimen: resuspend the pellet in 10 ml of PBS+20 mM DTT and incubate at 4° C. for 30 min to disintegrate the mucin. Wash with RPMI 1500 rpm for 5 min Resuspend the pellet in RPMI 10% FBS. • If the specimen is highly necrotic with presence of debris: Percoll 20% in HBSS, centrifuge at 800×g for 10 min • 4) The cell suspension was then incubated for 20 min at 37° C. in a tissue culture flask to remove macrophages by adherence. • The size and quantity of the flask and the volume used depends on the amount of cells.

[3] = person, tumor of unknown primary, maximum apoptotic response over the concentrations tested
[4] = KU compared per patient, % of 34 patients
[5] = KU compared per patient, % of 14 patients
[6] = KU compared per patient, % of 11 patients
[7] = KU compared per patient, % of 13 patients

Row | Compound | Max Resp. (KU) [1, 3] [KU] | KU Mean [2] [KU] | KU Median [2] [KU] | also measured
1 | COc1cccc2c1C(=O)c1c(O)c3c(c(O)c1C2=O)C[C@@](O)(C(=O)CO)C[C@@H]3O[C@H]1C[C@H](N)[C@H](O)[C@H](C)O1 [Doxo, doxorubicin] | 3.5 | 1.9 | 1.6 | Doxo > Doxil + 0.57 ([2]; KU compared per patient, % of 9 patients): 4/9 (44%); Doxo > Epi + 0.57 [2, 4]: 3/34 (9%); Mean Difference (95% CI) of KU vs Doxil ([2]; patient pairwise comparison, drug minus Doxil): 0.56 (−0.07 to 1.18) KU; Mean Difference (95% CI) of KU vs Mitox ([2]; patient pairwise comparison): 0.63 KU
2 | Bleomycin |  |  |  | Max Resp. (KU) [1]: 1.1 KU
3 | CCC1=C[C@@H]2CN(C1)Cc1c([nH]c3ccccc13)[C@@](C(=O)OC)(c1cc3c(cc1OC)N(C)[C@H]1[C@@](O)(C(=O)OC)[C@H](OC(C)=O)[C@]4(CC)C=CCN5CC[C@]31[C@@H]54)C2 [Vinor, vinorelbine] | 3.1 | 1.8 | 1.5 | Max (Vcr or Vnbl) > Vinor + 0.57 [2, 5]: (0%); Vcr and Vnbl and Vinor < 1 [2, 5]: (14%); Vinor = Max (Vcr or Vnbl) +/− 0.57 and both > 1 [2, 5]: (36%); Vinor > Max (Vcr or Vnbl) by more than 0.57 and Vinroel > 1 [2, 5]: (29%); Mean Difference (95% CI) of KU vs Vincristine ([2]; patient pairwise comparison): 0.63 KU; Mean Difference (95% CI) of KU vs Vincristine ([2]; patient pairwise comparison, listed as vinorelbine): APOP>vincristine; Mean Difference (95% CI) of KU vs Vnbl ([2]; patient pairwise comparison, drug minus Vnbl): 0.14 KU
4 | CC(C)C[C@H](NC(=O)[C@H](Cc1ccccc1)NC(=O)c1cnccn1)B(O)O [Velcade] | 3.8 |  |  | 
5 | O=C1[O][Pt]2([NH][C@@H]3CCCC[C@H]3[NH]2)[O]C1=O [Oxali, oxaliplatin] |  | 1.9 | 1.8 | Max Resp. (KU) [1]: 6.7 KU; Carbo and Cisplatin and Oxali < 1 [2, 6]: (9%); Max (Carbo or Cisplatin) = Oxali +/− 0.57 and both > 1 [2, 6]: (36%); Max (Carbo or Cisplatin) > Oxali by more than 0.57 and Max (Carbo or Cisplatin) > 1 [2, 6]: (36%); Oxali > Max (Carbo or Cisplatin) + 0.57 [2, 6]: (9%); Mean Difference (95% CI) of KU vs Carbo ([2]; patient pairwise comparison, drug minus Carbo): 0.34 KU; % >1 ([2]; share of samples with KU >1): 82%; % >3 ([2]; share of samples with KU >3): 9%
6 | COc1cc([C@@H]2c3cc4c(cc3[C@@H](O[C@@H]3O[C@@H]5CO[C@@H](C)O[C@H]5[C@H](O)[C@H]3O)[C@H]3COC(=O)[C@H]23)OCO4)cc(OC)c1O [Etoposide, etoposide] | 0.8 | 1.3 | 1.3 | 
7 | Cc1ccc(NC(=O)c2ccc(CN3CCN(C)CC3)cc2)cc1Nc1nccc(-c2cccnc2)n1 [Gleevec (imatinib), imatinib] | 1.5 |  |  | 
8 | CCN(CC)CCNC(=O)c1c(C)[nH]c(/C=C2\C(=O)Nc3ccc(F)cc32)c1C [Sunifinib, Sunitinib] | 7.9 |  |  | 
9 | O=NN(CCCl)C(=O)NC1CCCCC1 [CCNU] | 0.8 |  |  | 
10 | COc1cccc2c1C(=O)c1c(O)c3c(c(O)c1C2=O)C[C@@](O)(C(=O)CO)C[C@@H]3O[C@H]1C[C@H](N)[C@@H](O)[C@H](C)O1 [Epi, Epirubicin] | 3.8 | 2.5 | 2.1 | Doxo and Epi < 1 [2, 4]: 1/34 (3%); Epi = Doxo +/− 0.57 and both > 1 [2, 4]: 22/34 (65%); Epi > Doxo by more than 0.57 and Epi > 1 [2, 4]: 6/34 (18%); Mean Difference (95% CI) of KU vs Mitox ([2]; patient pairwise comparison): 0.83 KU; Mean Difference (95% CI) of KU vs Doxo ([2]; patient pairwise comparison): 0.37 KU; Mean Difference (95% CI) of KU vs Doxo ([2]; patient pairwise comparison, listed as epirubicin): APOP>doxorubicin
11 | Nc1ncn([C@@H]2O[C@H](CO)[C@@H](O)[C@H]2O)c(=O)n1 [Vidaza] | 4.3 |  |  | 
12 | CNC(=O)c1cc(Oc2ccc(NC(=O)Nc3ccc(Cl)c(C(F)(F)F)c3)cc2)ccn1 [Sorafenib] | 3.8 |  |  | 
13 | CC[C@]1(O)C[C@@H]2CN(CCc3c([nH]c4ccccc34)[C@@](C(=O)OC)(c3cc4c(cc3OC)N(C)[C@H]3[C@@](O)(C(=O)OC)[C@H](OC(C)=O)[C@]5(CC)C=CCN6CC[C@]43[C@@H]65)C2)C1 [Vnbl, Vinblastine] | 1.2 | 1.8 | 1.5 | Mean Difference (95% CI) of KU vs Vincristine ([2]; patient pairwise comparison): 0.14 KU
14 | CC[C@]1(O)C[C@H]2CN(CCc3c([nH]c4ccccc34)[C@@](C(=O)OC)(c3cc4c(cc3OC)N(C=O)[C@H]3[C@@](O)(C(=O)OC)[C@H](OC(C)=O)[C@]5(CC)C=CCN6CC[C@]43[C@@H]65)C2)C1 [Vincristine, vincristine] | 0.9 | 1.1 | 1.0 | 
15 | Nc1nc2[nH]cc(CCc3ccc(C(=O)N[C@@H](CCC(=O)O)C(=O)O)cc3)c2c(=O)[nH]1 [Alimta, pemetrexed] | 0.6 |  |  | 
16 | C=C1C[C@@H]2CC[C@@]34C[C@H]5O[C@H]6[C@@H](O3)[C@H]3O[C@H](CC[C@@H]3O[C@H]6[C@H]5O4)CC(=O)C[C@@H]3[C@@H](OC)[C@@H](C[C@H](O)CN)O[C@H]3C[C@H]3O[C@@H](CC[C@@H]1O2)C[C@@H](C)C3=C [Eribulin, eribulin] |  | 1.0 | 1.0 | 
17 | CCc1c2c(nc3ccc(OC(=O)N4CCC(N5CCCCC5)CC4)cc13)-c1cc3c(c(=O)n1C2)COC(=O)[C@]3(O)CC [Irinotecan] | 2.6 |  |  | 
18 | C#Cc1cccc(Nc2ncnc3cc(OCCOC)c(OCCOC)cc23)c1 [Tarceva] | 0.7 |  |  | 
19 | Cc1c2oc3c(C)ccc(C(=O)N[C@@H]4C(=O)N[C@H](C(C)C)C(=O)N5CCC[C@H]5C(=O)N(C)CC(=O)N(C)[C@@H](C(C)C)C(=O)O[C@@H]4C)c3nc-2c(C(=O)N[C@@H]2C(=O)N[C@H](C(C)C)C(=O)N3CCC[C@H]3C(=O)N(C)CC(=O)N(C)[C@@H](C(C)C)C(=O)O[C@@H]2C)c(N)c1=O [Dactinomycin] (I: T[dV]P[Sar][NMeV] / II: T[dV]P[Sar][NMeV]; ester I:1-I:C, II:1-II:C; linker I:N-II:N via Actinocin(9to1)) | 4.0 |  |  | 
20 | CNNCc1ccc(C(=O)NC(C)C)cc1 [Procarbazine] | 1.3 |  |  | 
21 | CCCCCOC(=O)Nc1nc(=O)n([C@@H]2O[C@H](C)[C@@H](O)[C@H]2O)cc1F [Xeloda, capcitabine] |  | 0.7 | 0.7 | 5fu and Xeloda < 1 [2, 7]: 8/13 (62%); Xeloda = 5fu +/− 0.57 and both > 1 [2, 7]: 0/13 (0%); Xeloda > 5fu by more than 0.57 and Xeloda > 1 [2, 7]: 2/13 (15%); Mean Difference (95% CI) of KU vs 5FU ([2]; patient pairwise comparison, drug minus 5FU): 0.26 (−0.26 to 0.77) KU
22 | COc1cccc2c1C(=O)c1c(O)c3c(c(O)c1C2=O)C[C@@](O)(C(C)=O)C[C@@H]3O[C@H]1C[C@H](N)[C@H](O)[C@H](C)O1 [Danorubicin, Daunorubicin] | 3.1 |  |  | 
23 | CN(C)/N=N/c1[nH]cnc1C(N)=O [Dacarbazine] | 0.6 |  |  | 
24 | N[C@@H](Cc1ccc(N(CCCl)CCCl)cc1)C(=O)O [Melphalan] | 5.3 |  |  | 
25 | Cn1nnc2c(C(N)=O)ncn2c1=O [Temozolomide] | 1.5 |  |  | 
26 | O=C1c2c(O)ccc(O)c2C(=O)c2c(NCCNCCO)ccc(NCCNCCO)c21 [Mitox, mitoxantrone] |  | 1.2 | 1.2 | 
27 | C/C(=C\c1csc(C)n1)[C@@H]1C[C@@H]2O[C@]2(C)CCC[C@H](C)[C@H](O)[C@@H](C)C(=O)C(C)(C)[C@@H](O)CC(=O)N1 [Ixabepilone, ixabepilone] |  | 1.3 | 1.2 | 
